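GI50: concentration for 50% inhibition of growth. TGI denotes the concentration required for complete inhibition of growth.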
Tests used:
Test in all cases: DTP human tumour cell line panel, 384-well format
[1] = system: T-47D breast
[2] = system: SW-620 colon
[3] = system: RXF 393 renal
[4] = system: NCI-H23 lung
[5] = system: MALME-3M melanoma
[6] = system: SK-OV-3 ovarian
[7] = system: ACHN renal
[8] = system: SR leukemia
[9] = system: DU-145 prostate
[10] = system: SNB-75 CNS
[11] = system: MDA-MB-468 breast
[12] = system: COLO 205 colon
[13] = system: OVCAR-8 ovarian
[14] = system: UO-31 renal
[15] = system: SNB-19 CNS
[16] = system: HL-60(TB) leukemia
[17] = system: HS 578T breast
[18] = system: MDA-MB-231 breast
[19] = system: HCC-2998 colon
[20] = system: PC-3 prostate
[21] = system: SK-MEL-5 melanoma
[22] = system: OVCAR-4 ovarian
[23] = system: HCT-15 colon
[24] = system: M14 melanoma
[25] = system: MCF7 breast
[26] = system: A498 renal
[27] = system: IGROV1 ovarian
[28] = system: SK-MEL-28 melanoma
[29] = system: HCT-116 colon
[30] = system: UACC-257 melanoma
[31] = system: NCI-H322M lung
[32] = system: U251 glioblastoma
[33] = system: TK-10 renal
[34] = system: A549 NSCLC
[35] = system: OVCAR-3 ovarian
[36] = system: SF-295 CNS
[37] = system: EKVX NSCLC
[38] = system: NCI-H460 NSCLC
[39] = system: MOLT-4 leukemia
[40] = system: MDA-MB-435 melanoma
[41] = system: OVCAR-5 ovarian
[42] = system: HOP-92 NSCLC
[43] = system: UACC-62 melanoma
[44] = system: 786-0 renal
[45] = system: NCI-H226 lung
[46] = system: NCI/ADR-RES ovarian
[47] = system: CAKI-1 renal
[48] = system: LOX IMVI melanoma
[49] = system: SF-268 CNS
[50] = system: SF-539 CNS
[51] = system: HT29 colon
[52] = system: KM12 colon
[53] = system: NCI-H522 lung
[54] = system: SN12C renal
[55] = system: RPMI-8226 leukemia
[56] = system: BT-549 breast
[57] = system: HOP-62 NSCLC

## CN(C)C/C=C/C(=O)Nc1cc2c(Nc3ccc(F)c(Cl)c3)ncnc2cc1O[C@H]1CCOC1
[1]
  GI50: 17.1 nM
  TGI: 2540 nM
[2]
  GI50: 1800 nM
  TGI: 5.1 µM
[3]
  GI50: 226 nM
  TGI: 838 nM
[4]
  GI50: 1320 nM
  TGI: 2780 nM
[5]
  GI50: 1420 nM
  TGI: 2730 nM
[6]
  GI50: 112 nM
  TGI: 8.4 µM
[7]
  GI50: < 10 nM
  TGI: 1420 nM
[8]
  GI50: 1210 nM
  TGI: 2450 nM
[9]
  GI50: 383 nM
  TGI: 3.61 µM
[10]
  GI50: 429 nM
  TGI: 2960 nM
[11]
  GI50: < 10 nM
[12]
  GI50: 2080 nM
  TGI: 10.3 µM
[13]
  GI50: 1200 nM
  TGI: 2770 nM
[14]
  GI50: 184 nM
  TGI: 10.7 µM
[15]
  GI50: 1910 nM
  TGI: 10.6 µM
[16]
  GI50: 340 nM
  TGI: 1300 nM
[17]
  GI50: 1450 nM
  TGI: 3.14 µM
[18]
  GI50: 386 nM
  TGI: 1870 nM
[19]
  GI50: 1340 nM
  TGI: 2810 nM
[20]
  GI50: 1570 nM
  TGI: 3.58 µM
[21]
  GI50: 1020 nM
  TGI: 2190 nM
[22]
  GI50: 2050 nM
  TGI: 6.59 µM
[23]
  GI50: 627 nM
  TGI: 2000 nM
[24]
  GI50: 1310 nM
  TGI: 2590 nM
[25]
  GI50: 1220 nM
  TGI: 2780 nM
[26]
  GI50: 126 nM
  TGI: 1540 nM
[27]
  GI50: < 10 nM
  TGI: 1090 nM
[28]
  GI50: 1990 nM
  TGI: 5.18 µM
[29]
  GI50: 551 nM
  TGI: 1950 nM
[30]
  GI50: 1330 nM
  TGI: 2620 nM
[31]
  GI50: < 10 nM
  TGI: 13.1 nM
[32]
  GI50: 1310 nM
  TGI: 4.05 µM
[33]
  GI50: < 10 nM
  TGI: 11.2 µM
[34]
  GI50: 436 nM
  TGI: 2330 nM
[35]
  GI50: 79.8 nM
  TGI: 928 nM
[36]
  GI50: 3.93 µM
  TGI: 14.6 µM
[37]
  GI50: < 10 nM
  TGI: 2160 nM
[38]
  GI50: 1790 nM
  TGI: 3.8 µM
[39]
  GI50: 232 nM
  TGI: 1260 nM
[40]
  GI50: 2010 nM
  TGI: 9.46 µM
[41]
  GI50: 1050 nM
  TGI: 7.64 µM
[42]
  GI50: 499 nM
  TGI: 2510 nM
[43]
  GI50: 1370 nM
  TGI: 2780 nM
[44]
  GI50: 763 nM
  TGI: 2190 nM
[45]
  GI50: 907 nM
  TGI: 2210 nM
[46]
  GI50: 1400 nM
  TGI: 5.41 µM
[47]
  GI50: 138 nM
  TGI: 1570 nM
[48]
  GI50: 1050 nM
  TGI: 2240 nM
[49]
  GI50: 1390 nM
  TGI: 3.91 µM
[50]
  GI50: 1410 nM
  TGI: 2780 nM
[51]
  GI50: 2000 nM
  TGI: 11.4 µM
[52]
  GI50: 1230 nM
  TGI: 3.07 µM
[53]
  GI50: < 10 nM
  TGI: 34.4 nM
[54]
  GI50: 316 nM
  TGI: 6.53 µM
[55]
  GI50: 1280 nM
  TGI: 2550 nM
[56]
  GI50: 617 nM
  TGI: 1920 nM
[57]
  GI50: 1910 nM
  TGI: 5.05 µM

— PubChem BioAssay (NCI)
